Values of other authors as cited in US6906044B2, “Regeneration of articular cartilage damaged by grade I and II osteoarthritis by means of the intraarticular application of a mixture of sodium hyaluronate and chondroitin sulfate in a gel vehicle” (Alcon, Inc., priority 2001, dated 2005).

Test system: injured knees of the horses
Conditions: observed by veterinarians at racetracks

Q: With sodium hyaluronate as the substance, how does the “reaction in injured knees” value read?
A: Its value is “beneficial reaction”.
